This passage reports IC50 results from patent publication US20260355196A1, “INHIBITORS AND DEGRADERS OF PIP4K PROTEIN” (Larkspur Biosciences, Inc., priority 2023, published 2026).

This test addresses T1, PIP4K2C (Homo sapiens, UniProt Q8TBX8).
T1 sequence (Q8TBX8 1-421): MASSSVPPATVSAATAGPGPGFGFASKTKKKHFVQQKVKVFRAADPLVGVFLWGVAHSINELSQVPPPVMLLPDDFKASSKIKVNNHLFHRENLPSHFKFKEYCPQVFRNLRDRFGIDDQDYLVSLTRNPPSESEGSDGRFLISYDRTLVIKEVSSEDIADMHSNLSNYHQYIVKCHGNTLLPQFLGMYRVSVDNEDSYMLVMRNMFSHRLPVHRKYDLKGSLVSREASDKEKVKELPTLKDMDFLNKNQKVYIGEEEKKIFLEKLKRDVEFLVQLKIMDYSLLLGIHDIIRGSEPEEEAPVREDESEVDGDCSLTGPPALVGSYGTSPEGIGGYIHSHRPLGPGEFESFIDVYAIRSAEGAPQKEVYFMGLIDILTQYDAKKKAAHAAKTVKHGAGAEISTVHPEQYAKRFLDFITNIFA
Description: Enzyme Binding Assay (KINOMEscan): active site-directed competition binding to an immobilized ligand. Also noted: purchased Eurofins DiscoverX, San Diego, CA 87-0007-1094. To be noted: 11-point dose response, duplicate, top concentration 5 micromolar; read-out: Pip4k2c Kd: IC50. The method in brief: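 Active site-directed competition binding against an immobilized ligand. 11-point dose-response in duplicate, top concentration 5 micromolar; IC50 from a Hill equation fitted by the Levenberg-Marquardt algorithm.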
As a reminder, the IC50 is the midpoint of a concentration-inhibition curve. Regarding `CNC(=O)[C@H]1CC[C@@H](Nc2ncc(Cl)c(-c3cnn(-c4cc[nH]c(=O)c4)c3)n2)CC1` [Compound 148, cis-(1s,4s)-4-((5-chloro-4-(1-(2-oxo-1,2-dihydropyridin-4-yl)-1H-pyrazol-4-yl)pyrimidin-2-yl)amino)-N-methylcyclohexane-1-carboxamide], the 50% inhibitory concentration (IC50) lay in the range of 1 to 5 µM.

`CC(=O)N[C@H]1CC[C@H](Nc2ncc(Cl)c(-c3cnn(-c4ccc[nH]c4=O)c3)n2)CC1` [Compound 149, trans-N-((1r,4r)-4-((5-chloro-4-(1-(2-oxo-1,2-dihydropyridin-3-yl)-1H-pyrazol-4-yl)pyrimidin-2-yl)amino)cyclohexyl)acetamide]: the 50% inhibitory concentration (IC50) is below 0.5 µM.

Consider `CC(=O)N1CCC[C@H](Nc2ncc(Cl)c(-c3cccc(-c4ccc[nH]c4=O)c3)n2)C1` [Compound 152, (S)-3-(3-(2-((1-acetylpiperidin-3-yl)amino)-5-chloropyrimidin-4-yl)phenyl)pyridin-2(1H)-one], for which the IC50 was below 0.5 µM. In the case of `CC(=O)N[C@H]1CC[C@@H](Nc2ncc(Cl)c(-c3cccc(-c4ccc[nH]c4=O)c3)n2)CC1` [Compound 153, cis-N-((1s,4s)-4-((5-chloro-4-(3-(2-oxo-1,2-dihydropyridin-3-yl)phenyl)pyrimidin-2-yl)amino)cyclohexyl)acetamide], the half-inhibitory concentration (IC50) was below 0.5 µM. With `CC(=O)N[C@H]1CC[C@H](Nc2ncc(Cl)c(-c3cccc(-c4ccc[nH]c4=O)c3)n2)CC1` [Compound 154, trans-N-((1r,4r)-4-((5-chloro-4-(3-(2-oxo-1,2-dihydropyridin-3-yl)phenyl)pyrimidin-2-yl)amino)cyclohexyl)acetamide] the figure was below 0.5 µM; with `CNC(=O)[C@H]1CC[C@H](Nc2ncc(Cl)c(-c3cccc(-c4ccc[nH]c4=O)c3)n2)CC1` [Compound 155, trans-(1r,4r)-4-((5-chloro-4-(3-(2-oxo-1,2-dihydropyridin-3-yl)phenyl)pyrimidin-2-yl)amino)-N-methylcyclohexane-1-carboxamide], below 0.5 µM.

As to `CNC(=O)[C@H]1C[C@@H](Nc2ncc(Cl)c(-c3cccc(-c4ccc[nH]c4=O)c3)n2)C1` [Compound 156, cis-3-((5-chloro-4-(3-(2-oxo-1,2-dihydropyridin-3-yl)phenyl)pyrimidin-2-yl)amino)-N-methylcyclobutane-1-carboxamide], the IC50 is below 0.5 µM. As for `CC(=O)N1CCC[C@H](Nc2ncc(Cl)c(-c3cccc(-c4cccc(=O)[nH]4)c3)n2)C1` [Compound 157, (S)-6-(3-(2-((1-acetylpiperidin-3-yl)amino)-5-chloropyrimidin-4-yl)phenyl)pyridin-2(1H)-one], the figure is below 0.5 µM; as for `CC(=O)N[C@H]1CC[C@H](Nc2ncc(Cl)c(-c3cccc(-c4ccc(F)cc4)n3)n2)CC1` [Compound 158, trans-N-((1r,4r)-4-((5-chloro-4-(6-(4-fluorophenyl)pyridin-2-yl)pyrimidin-2-yl)amino)cyclohexyl)acetamide], below 0.5 µM; as for `CNC(=O)[C@H]1CC[C@H](Nc2ncc(Cl)c(-c3cccc(-c4ccc(F)cc4)n3)n2)CC1` [Compound 159, trans-(1r,4r)-4-((5-chloro-4-(6-(4-fluorophenyl)pyridin-2-yl)pyrimidin-2-yl)amino)-N-methylcyclohexane-1-carboxamide], below 0.5 µM.

Turning to `CNC(=O)[C@H]1CC[C@H](Nc2ncc(Cl)c(-c3ccnc(-c4ccc(F)cc4)c3)n2)CC1` [Compound 160, trans-(1r,4r)-4-((5-chloro-4-(2-(4-fluorophenyl)pyridin-4-yl)pyrimidin-2-yl)amino)-N-methylcyclohexane-1-carboxamide], the half-maximal inhibitory concentration (IC50) was below 0.5 µM. With `CNC(=O)[C@H]1C[C@@H](Nc2ncc(Cl)c(-c3cc(C4CC4)[nH]n3)n2)C1` [Compound 161, cis-3-((5-chloro-4-(5-cyclopropyl-1H-pyrazol-3-yl)pyrimidin-2-yl)amino)-N-methylcyclobutane-1-carboxamide] the figure was below 0.5 µM; with `CNC(=O)[C@H]1C[C@H](Nc2ncc(Cl)c(-c3cc(C4CC4)[nH]n3)n2)C1` [Compound 162, trans-(1r,3r)-3-((5-chloro-4-(5-cyclopropyl-1H-pyrazol-3-yl)pyrimidin-2-yl)amino)-N-methylcyclobutane-1-carboxamide], below 0.5 µM. Consider `CNC(=O)[C@H]1CC[C@@H](Nc2ncc(Cl)c(-c3cnn(-c4ccc(=O)[nH]c4)c3)n2)CC1` [Compound 163, cis-(1s,4s)-4-((5-chloro-4-(1-(6-oxo-1,6-dihydropyridin-3-yl)-1H-pyrazol-4-yl)pyrimidin-2-yl)amino)-N-methylcyclohexane-1-carboxamide], for which the IC50 lay within 0.5 to 1 µM. In the case of `CNC(=O)[C@H]1C[C@@H](Nc2ncc(Cl)c(-c3cnn(-c4ccc(=O)[nH]c4)c3)n2)C1` [Compound 164, cis-3-((5-chloro-4-(1-(6-oxo-1,6-dihydropyridin-3-yl)-1H-pyrazol-4-yl)pyrimidin-2-yl)amino)-N-methylcyclobutane-1-carboxamide], the 50% inhibitory concentration (IC50) was below 0.5 µM. As for `CNC(=O)[C@H]1CC[C@H](Nc2ncc(Cl)c(-c3cnn(-c4cc[nH]c(=O)c4)c3)n2)CC1` [Compound 165, trans-(1r,4r)-4-((5-chloro-4-(1-(2-oxo-1,2-dihydropyridin-4-yl)-1H-pyrazol-4-yl)pyrimidin-2-yl)amino)-N-methylcyclohexane-1-carboxamide], the figure is 0.5 to 1 µM; as for `CNC(=O)[C@H]1C[C@H](Nc2ncc(Cl)c(-c3cnn(-c4ccc[nH]c4=O)c3)n2)C1` [Compound 166, trans-(1r,3r)-3-((5-chloro-4-(1-(2-oxo-1,2-dihydropyridin-3-yl)-1H-pyrazol-4-yl)pyrimidin-2-yl)amino)-N-methylcyclobutane-1-carboxamide], below 0.5 µM; as for `CNC(=O)[C@H]1CC[C@@H](Nc2ncc(Cl)c(-c3cnn(-c4cccc(=O)[nH]4)c3)n2)CC1` [Compound 167, cis-(1s,4s)-4-((5-chloro-4-(1-(6-oxo-1,6-dihydropyridin-2-yl)-1H-pyrazol-4-yl)pyrimidin-2-yl)amino)-N-methylcyclohexane-1-carboxamide], 0.5 to 1 µM. With `CC(=O)N1CCC(Nc2ncc(F)c(-c3cccc(C4COC4)c3)n2)CC1` [Compound 169, 1-(4-((5-fluoro-4-(3-(oxetan-3-yl)phenyl)pyrimidin-2-yl)amino)piperidin-1-yl)ethan-1-one] the figure was below 0.5 µM; with `CC(=O)N1CCC(Nc2ncc(F)c(-c3cccc(C4(O)COC4)c3)n2)CC1` [Compound 171, 1-(4-((5-fluoro-4-(3-(3-hydroxyoxetan-3-yl)phenyl)pyrimidin-2-yl)amino)piperidin-1-yl)ethan-1-one], below 0.5 µM; with `CC(=O)N1CCC(Nc2ncc(F)c(-c3ccnc(C(C)(C)O)c3)n2)CC1` [Compound 172, 1-(4-((5-fluoro-4-(2-(2-hydroxypropan-2-yl)pyridin-4-yl)pyrimidin-2-yl)amino)piperidin-1-yl)ethan-1-one], below 0.5 µM.

As to `CC(=O)N[C@H]1CC[C@H](Nc2ncc(F)c(-c3cccc(C4CCCN(C(C)=O)C4)c3)n2)CC1` (stereo partly drawn) [Compound 174, trans-N-(4-((4-(3-(1-acetylpiperidin-3-yl)phenyl)-5-fluoropyrimidin-2-yl)amino)cyclohexyl)acetamide], the IC50 is below 0.5 µM.
